Patent US8409166B2, “Method for pressure mediated selective delivery of therapeutic substances and cannula” (The United States of America as represented by the …, priority 1998, dated 2013)

Columns and labels:
[1] = system: intrahepatic tight junctions; assay: Constant pressure retrograde biliary infusion in mice (flow rate, resistance, paracellular leakage); details: for Ave Counts (paracellular leakage): Cholestatic 04 day mice
Text: FIG. 35 is a diagram of a working example of a system for constant-pressure intralumenal delivery. […] A working model was regulated using an adaptation of a Cole-Palmer pressure controller. Infusion fluid from the reservoir flows through capillary glass tubes 224 on its way to an infusion line 226. Flow rates may then be determined by tracking air bubbles 228 in the capillary glass tubes 224 with a ruler 229. A pressure sensor 230 detects the pressure of the infusion fluid at a location near the infusion line 226.
To set up the system, fluid was added to the reservoir, and the system was rinsed and filled with fluid. The infusion line 226 was then surgically placed into the animal's organ. […] By adjusting the controller setting the desired pressure could be obtained at the pressure sensor, which was kept at the same height (z=0) as the animal. The reading at the pressure sensor was thus equal to the applied pressure (the pump pressure) plus the pressure head (the pressure increase due to the change in height between the top of the liquid level in the reservoir and the height of the infusion line). The infusion line was kept at the same height as the pressure sensor and the animal on the operating table. Alternate systems could be of course be adapted in which a constant pressure is maintained at the pressure sensor and not at the top of the Reservoir. This would be most important when a large volume of fluid is infused.
The flow rate of infusion fluid was experimentally recorded in the following way: the cross sectional area of the bubble tube was determined by injecting a known volume of water (from syringe 232) into a measured length of the bubble tube. The cross sectional area was 0.0233 cm^2 (0.35 cc in 15 cm). When the flow started, an air bubble was slowly injected into the infusion fluid flow. The bubble then traveled down the bubble tube. At the end of the tube, the bubble would rise up into the bubble trap 234 and displace an equal volume of liquid. For each bubble 25 time points were recorded, on 1-cm intervals of ruler 229. The time versus distance that the bubble had traveled could be plotted and the slope of this line was the velocity of the bubble. Multiplying the slope by the cross sectional area of the bubble tube gave the average flow rate of the infusion fluid. This method of flow rate measurement is a working and experimental model for the purpose of illustration. In practice, flow rates may also be determined by ultrasonic or other methods known to those of skill in the art.
Constant pressure infusion was evaluated in mice using the retrograde biliary infusion setup described previously. The constant pressure device was substituted for the microinfusion pump. […] Infusion flow rates were recorded using the bubble tube method described above. Blood samples were obtained and evaluated as described above.
Solutes evaluated included sucrose (molecular weight 370), inulin (molecular weight 5,200), and Dextran (molecular weight 70,000).

[2] = system: urinary bladder epithelial cell tight junctions; assay: Intralumenal delivery to the rabbit urinary bladder (electron and fluorescent microscopy); assay type: in vivo, Dutch Belted Rabbits; details: 5 mM, 10 minutes
Text: As an experimental model to mimic retrourethral delivery, male Dutch Belted Rabbits (1-2 Kg BW) had PE-50 tubing placed in the lumen of each […] and advanced so that the tips were within the lumen of the urinary bladder. One ureteral catheter was connected to a pressure transducer and used for recording intralumenal pressure. The other ureteral catheter was connected to a microinfusion pump. Microvascular clips were placed on the ureters to prevent retrograde reflux. The urethra was occluded using a vascular loop. 5 mM Lanthanum Chloride was infused so that the intralumenal pressure was either 25 mm Hg or 50 mm Hg.
Tissues were removed 10 minutes later and processed for electron microscopy. […] Following the administration of 200 nm fluorescent latex microspheres at 50 mm-[…] intralumenal pressure, the urinary bladder was removed and processed for fresh-frozen sections.

[3] = system: interhepatocyte tight junctions; assay: Retrograde biliary infusion of lanthanum chloride, electron microscopy of intrahepatic distribution; assay type: in vivo, mice; details: 720 μl of 5 mM at 2 or 8 μl/second
Procedure: Movement of fluid from the intralumenal space may conceivably occur either directly across physically opened tight junctions or indirectly by altered rates of transepithilial transcytosis. […] The ability of retrograde biliary infusion to disrupt tight junctions was evaluated by qualitative ultrastructural examination of the intrahepatic distribution of lanthanum chloride, a heavy metal normally impermeant to structurally intact tight junctions.
Animals were infused retrograde with either 5 mM lanthanum chloride (Sigma) or 0.9% NaCl vehicle. Three infusions of 240 μl volume were administered per animal at a rate of 2 or 8 μl/second, with a 10 second pause between infusions. Freshly removed tissue was fixed overnight in 2% glutaraldehyde in 0.2 M cacodylate buffer. Following standard processing and embedding, 0.5 micrometer thick sections were stained with uranyl acetate and lead citrate. Sections were then examined using a Philips 201 Electron Microscope.

[4] = constant pressure retrograde biliary infusion

OC[C@H]1O[C@@](CO)(O[C@H]2O[C@H](CO)[C@@H](O)[C@H](O)[C@H]2O)[C@@H](O)[C@@H]1O [[14C]-sucrose]
appearance in systemic bloodstream ([1]; mouse, in vivo): detected in the systemic bloodstream

[Cl][La]([Cl])[Cl] [lanthanum chloride]
electron microscopy finding in urinary bladder ([2]; intralumenal pressure 25 mm Hg): electron dense deposits were detected in the intercellular spaces between epithelial cells
electron microscopy finding in urinary bladder ([2]; intralumenal pressure 50 mm Hg): some evidence of patchy epithelial denudation
electron dense deposits at bile ducts [3]: found within bile ducts but not in their adjacent subepithelial tissue compartments
electron dense deposits at canaliculi and subepithelial compartments [3]: within biliary canaliculi, interhepatocyte cell spaces, and the perisinusoidal Space of Disse

Dextran
appearance in systemic bloodstream [1, 4]: detected in the systemic bloodstream

[14C]-inulin
Ave Counts (paracellular leakage) ([1]; 10 mmHg): 27
Ave Counts (paracellular leakage) ([1]; 20 mmHg): 2534
Ave Counts (paracellular leakage) ([1]; 40 mmHg): 20134
appearance in systemic bloodstream [1, 4]: detected in the systemic bloodstream
